The source of these data is patent US12564554B2, “Co-amorphous forms of beta-lactoglobulin and a drug substance” (DISPERSOME IP APS, priority 2019, dated 2026).

This data set can be described thus: mDSC measurement of the glass transition temperature (Tg). The class given is physicochemical. To be noted: freshly prepared, ball milled (Table 2). The procedure: The mDSC thermograms of the samples were collected using a Discovery DSC (TA instruments, New Castle, USA) under a nitrogen gas flow of 50 ml/min. The samples containing Compound A, Compound B and IND were analysed at a heating rate of 2° C./min from 25° C. to 200° C., with an underlying modulation temperature amplitude of 0.2120° C. and a period of 40 s. For the remaining samples the same heating rate, amplitude and period were applied. Samples containing compounds APA, BDQ, RIF and VNX were heated from 25° C. to 250° C., and samples containing Compound RIT were heated from 0° C. to 170° C. A total of 4-8 mg sample powder was filled into aluminium Tzero pans and sealed with an aluminium Tzero lid. The glass transition temperature (Tg) was determined as the midpoint from the reversing heat flow signal.
In turn, `CNC(=O)c1ccc(N2C(=S)N(c3cnc(C#N)c(C(F)(F)F)c3)C(=O)C23CCC3)cc1F` [Pure amorphous APA, Apalutamide] gave a Tg of 97.4 °C.
`CO[C@H]1/C=C/O[C@@]2(C)Oc3c(C)c(O)c4c(O)c(c5c(nc6cc(C)ccn65)c4c3C2=O)NC(=O)/C(C)=C\C=C\[C@H](C)[C@H](O)[C@@H](C)[C@@H](O)[C@@H](C)[C@H](OC(C)=O)[C@@H]1C` [Pure amorphous RIF, rifaximin] came in with a Tg of 194.4 °C.
Next, `CC(C)c1nc(CN(C)C(=O)N[C@H](C(=O)N[C@@H](Cc2ccccc2)C[C@H](O)[C@H](Cc2ccccc2)NC(=O)OCc2cncs2)C(C)C)cs1` [Pure amorphous RIT, ritonavir]: 41.7 °C; “bedaquiline fumarate [Pure amorphous BDQ]”: 79.4 °C.
